The values below come from paper PMC10439952, “JT002, a small molecule inhibitor of the NLRP3 inflammasome for the treatment of autoinflammatory disorders” (Scientific Reports, 2023).

Structures are written as SMILES.

The target of experiment [1] is NLRP3 inflammasome (Mus musculus, UniProt Q8R4B8). As to the kind of experiment: Inhibition of IL-1β production in LPS + ATP stimulated mouse whole blood. The experiment is classed as cell-based. The protocol: (§1) Inflammasome activation and whole blood assays were essentially carried out as described earlier. Details can be found in the supplementary information section accompanying this publication. A protocol for blood draws from healthy volunteers and use of the blood in preclinical assays was approved by Western Institutional Review Board, Inc (Puyallup, WA, USA). Informed consent was obtained from each donor prior to the first blood draw.
Cell viability was determined by addition of an equal volume of CellTiter-Glo® 2.0 reagent (Promega) to the remaining cells/supernatant in each well. Intracellular Caspase-1 activity was measured using the Caspase-Glo® assay (Promega) according to the manufacturer’s instructions. The biochemical capsase-1 assay was conducted at Reaction Biology Corporation (Malvern, USA). Human IL-1β, IL-1α, and TNFα and mouse IL-1β were measured in cell culture supernatants using homogeneous time resolved fluorescence assay kits (HTRF, Cisbio, Codolet, France). Human IL-18 was measured in cell culture supernatants using an ELISA kit (R&D Systems, Minneapolis, MN, USA). Plasma IL-1β concentrations were determined by Quantikine® ELISA (R&D Systems, Minneapolis, MN). […]
flagellin, prepared in Opt iMEM and combined with Lipofectamine 2000. […]

Experiment [2] deals with T1, NLRP3 inflammasome (Rattus norvegicus, UniProt D4A523).
T1 construct: host or cells: rat PBMCs
As to the kind of experiment: Inhibition of IL-1β production in rat PBMCs stimulated by LPS + nigericin. To be noted: Rat PBMC, read-out: Geo Av IC50, IL-1β. The experiment is classed as cell-based.
From the text: as §1
4H). MS: m/z 433.1 (M+H+).
Inflammasome activation.PBMCs (iXCells Biotechnologies, San Diego, USA) were thawed the day before the assay and seeded in complete medium (RPMI 1640 medium with GlutaMAX, supplemented with an additional 2.5 g/L D-glucose, 10% Fet al Bovine Serum, 100 mM Sodium Pyruvate, 1% Penicillin/Streptomycin, 10 mM HEPES and 0.05 mM β -mercaptoethanol) in polystyrene V-bottom 96-well plates at 5x10^4 cells per well and incubated overnight at 37°C with 5% CO 2. […]
flagellin, prepared in Opt iMEM and combined with Lipofectamine 2000. […] After priming Nlrp3 -/- mBMDMs with 100 ng/mL of LPS for 3- 5 h, cells were exposed to 100 ng/mL L18- MDP and incubated overnight.At the end of the incubation period of the assays above, plates were briefly centri fuged and hal f of the cell culture supern atant remo ved and either analysed i mmediately or stored at - 80°C for subs equent cytokine […]

Sequence of NLRP3 inflammasome (Mus musculus, UniProt Q8R4B8) (Q8R4B8 whole entry): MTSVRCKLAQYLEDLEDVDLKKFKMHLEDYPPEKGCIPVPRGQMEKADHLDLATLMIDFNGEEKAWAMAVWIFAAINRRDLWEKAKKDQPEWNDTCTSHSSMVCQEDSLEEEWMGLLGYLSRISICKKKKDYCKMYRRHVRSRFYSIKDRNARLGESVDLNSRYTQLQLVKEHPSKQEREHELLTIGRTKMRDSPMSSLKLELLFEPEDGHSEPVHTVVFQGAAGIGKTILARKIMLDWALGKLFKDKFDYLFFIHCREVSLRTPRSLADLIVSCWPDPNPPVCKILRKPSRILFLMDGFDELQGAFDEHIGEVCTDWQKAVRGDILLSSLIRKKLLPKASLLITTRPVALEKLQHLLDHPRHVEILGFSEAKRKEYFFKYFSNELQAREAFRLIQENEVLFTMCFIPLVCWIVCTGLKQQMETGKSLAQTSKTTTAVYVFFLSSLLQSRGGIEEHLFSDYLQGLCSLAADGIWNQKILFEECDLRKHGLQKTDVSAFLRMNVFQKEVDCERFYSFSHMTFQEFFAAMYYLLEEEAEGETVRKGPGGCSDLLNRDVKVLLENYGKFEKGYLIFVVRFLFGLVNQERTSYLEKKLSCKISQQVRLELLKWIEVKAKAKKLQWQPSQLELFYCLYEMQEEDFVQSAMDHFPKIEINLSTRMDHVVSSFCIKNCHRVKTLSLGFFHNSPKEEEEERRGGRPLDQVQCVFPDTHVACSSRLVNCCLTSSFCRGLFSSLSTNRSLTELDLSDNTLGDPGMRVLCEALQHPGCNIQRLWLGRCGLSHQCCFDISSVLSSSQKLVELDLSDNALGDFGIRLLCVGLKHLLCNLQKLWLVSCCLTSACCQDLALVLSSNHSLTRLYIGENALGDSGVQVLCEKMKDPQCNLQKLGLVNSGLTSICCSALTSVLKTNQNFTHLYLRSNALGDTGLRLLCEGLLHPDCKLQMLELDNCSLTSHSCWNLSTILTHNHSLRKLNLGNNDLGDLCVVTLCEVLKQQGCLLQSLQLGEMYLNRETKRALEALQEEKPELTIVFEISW
T1 sequence (D4A523 whole entry): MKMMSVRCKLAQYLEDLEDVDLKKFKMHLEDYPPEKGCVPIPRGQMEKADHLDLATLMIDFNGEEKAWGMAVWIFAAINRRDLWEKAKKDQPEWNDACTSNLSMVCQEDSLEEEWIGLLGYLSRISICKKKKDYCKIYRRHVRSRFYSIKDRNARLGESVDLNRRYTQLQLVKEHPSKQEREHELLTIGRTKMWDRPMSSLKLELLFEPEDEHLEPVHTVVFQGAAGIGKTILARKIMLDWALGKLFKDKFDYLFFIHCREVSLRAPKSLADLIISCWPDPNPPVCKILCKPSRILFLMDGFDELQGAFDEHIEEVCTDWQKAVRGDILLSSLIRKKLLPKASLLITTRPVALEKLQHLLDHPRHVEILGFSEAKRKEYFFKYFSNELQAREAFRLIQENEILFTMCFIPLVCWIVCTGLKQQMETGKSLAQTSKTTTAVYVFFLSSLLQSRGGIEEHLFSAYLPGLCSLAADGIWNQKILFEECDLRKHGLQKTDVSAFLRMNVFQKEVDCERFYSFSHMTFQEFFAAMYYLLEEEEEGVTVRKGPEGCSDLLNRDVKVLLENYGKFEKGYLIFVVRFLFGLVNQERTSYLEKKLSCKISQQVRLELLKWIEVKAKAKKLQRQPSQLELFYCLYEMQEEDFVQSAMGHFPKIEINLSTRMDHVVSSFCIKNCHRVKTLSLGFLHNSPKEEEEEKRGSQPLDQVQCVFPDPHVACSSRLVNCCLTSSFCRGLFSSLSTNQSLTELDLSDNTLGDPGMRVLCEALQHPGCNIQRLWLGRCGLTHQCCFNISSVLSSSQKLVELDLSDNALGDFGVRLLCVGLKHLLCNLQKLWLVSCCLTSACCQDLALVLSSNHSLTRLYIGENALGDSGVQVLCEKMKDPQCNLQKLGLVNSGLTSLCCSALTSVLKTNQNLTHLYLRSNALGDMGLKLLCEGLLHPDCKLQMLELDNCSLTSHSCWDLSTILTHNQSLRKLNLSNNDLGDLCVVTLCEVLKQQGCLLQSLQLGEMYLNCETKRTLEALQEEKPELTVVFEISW

On to `CO[C@@H]1COc2c(S(=O)(=O)NC(=O)Nc3c4c(cc5c3CCC5)CCC4)cnn2C1` [JT002], for which, on NLRP3 inflammasome [1] (IL-1β, read-out: in vitro mouse whole blood IC90), the 90% effect concentration (IC90) (as a rule, the concentration at which the effect reaches the 90% level) worked out at 0.716 µM. Moreover, the IC50 (as a rule, the point on the concentration scale where inhibition reaches its midpoint) at NLRP3 inflammasome [1] (read-out: Geo Av IC50, IL-1β) came to 0.094 µM; on NLRP3 inflammasome [2] it was 0.159 µM.
